Results taken from PMC3914206.

Legend:
Format in all cases: binding
Conditions in all cases: Compound Concentration 10 µM
panel of 442 kinases [1] = target: T1, panel of 442 kinases (Homo sapiens, UniProt P07949, M918T)
T1 construct: purchased KINOMEscan
Excerpt: (§1) We assessed the selectivity of members of this scaffold using the KINOMEscan methodology across a near comprehensive panel of 442 kinases [[18,27]].

panel of 442 kinases [2] = target: T2, panel of 442 kinases (Homo sapiens, UniProt O14733)
T2 construct: purchased KINOMEscan
T2 sequence (O14733 1-419): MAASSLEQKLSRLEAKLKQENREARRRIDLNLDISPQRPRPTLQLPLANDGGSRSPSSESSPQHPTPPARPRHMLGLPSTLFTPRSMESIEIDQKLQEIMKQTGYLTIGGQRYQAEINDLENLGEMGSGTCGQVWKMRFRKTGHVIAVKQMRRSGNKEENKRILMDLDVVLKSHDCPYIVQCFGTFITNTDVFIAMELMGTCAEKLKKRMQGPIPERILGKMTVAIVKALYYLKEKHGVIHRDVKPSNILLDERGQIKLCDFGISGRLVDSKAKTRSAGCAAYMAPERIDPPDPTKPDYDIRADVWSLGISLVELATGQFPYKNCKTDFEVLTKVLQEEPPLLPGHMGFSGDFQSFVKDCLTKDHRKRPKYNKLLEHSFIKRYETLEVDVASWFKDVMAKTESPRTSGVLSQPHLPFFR
Excerpt: as §1

panel of 442 kinases [3] = target: T3, panel of 442 kinases (Homo sapiens, UniProt Q9BQI3)
T3 construct: purchased KINOMEscan
T3 sequence (Q9BQI3 whole entry): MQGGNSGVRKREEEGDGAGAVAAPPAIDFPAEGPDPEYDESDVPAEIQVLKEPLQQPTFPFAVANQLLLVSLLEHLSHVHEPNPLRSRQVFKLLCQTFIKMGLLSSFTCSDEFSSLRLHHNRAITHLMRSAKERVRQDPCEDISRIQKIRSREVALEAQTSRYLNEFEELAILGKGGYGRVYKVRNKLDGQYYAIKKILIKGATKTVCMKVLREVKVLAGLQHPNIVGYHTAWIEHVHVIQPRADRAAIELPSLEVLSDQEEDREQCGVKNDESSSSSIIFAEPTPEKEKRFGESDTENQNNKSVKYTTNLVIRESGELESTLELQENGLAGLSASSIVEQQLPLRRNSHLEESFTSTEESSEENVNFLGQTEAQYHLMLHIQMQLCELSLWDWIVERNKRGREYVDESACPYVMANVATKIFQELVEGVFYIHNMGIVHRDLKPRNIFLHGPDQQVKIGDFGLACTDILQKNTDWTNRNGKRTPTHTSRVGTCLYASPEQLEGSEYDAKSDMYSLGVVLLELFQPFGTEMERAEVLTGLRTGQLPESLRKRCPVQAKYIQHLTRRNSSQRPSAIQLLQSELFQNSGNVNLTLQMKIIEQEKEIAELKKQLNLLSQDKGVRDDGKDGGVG
Excerpt: as §1

T1 sequence (P07949 29-1114 M918T): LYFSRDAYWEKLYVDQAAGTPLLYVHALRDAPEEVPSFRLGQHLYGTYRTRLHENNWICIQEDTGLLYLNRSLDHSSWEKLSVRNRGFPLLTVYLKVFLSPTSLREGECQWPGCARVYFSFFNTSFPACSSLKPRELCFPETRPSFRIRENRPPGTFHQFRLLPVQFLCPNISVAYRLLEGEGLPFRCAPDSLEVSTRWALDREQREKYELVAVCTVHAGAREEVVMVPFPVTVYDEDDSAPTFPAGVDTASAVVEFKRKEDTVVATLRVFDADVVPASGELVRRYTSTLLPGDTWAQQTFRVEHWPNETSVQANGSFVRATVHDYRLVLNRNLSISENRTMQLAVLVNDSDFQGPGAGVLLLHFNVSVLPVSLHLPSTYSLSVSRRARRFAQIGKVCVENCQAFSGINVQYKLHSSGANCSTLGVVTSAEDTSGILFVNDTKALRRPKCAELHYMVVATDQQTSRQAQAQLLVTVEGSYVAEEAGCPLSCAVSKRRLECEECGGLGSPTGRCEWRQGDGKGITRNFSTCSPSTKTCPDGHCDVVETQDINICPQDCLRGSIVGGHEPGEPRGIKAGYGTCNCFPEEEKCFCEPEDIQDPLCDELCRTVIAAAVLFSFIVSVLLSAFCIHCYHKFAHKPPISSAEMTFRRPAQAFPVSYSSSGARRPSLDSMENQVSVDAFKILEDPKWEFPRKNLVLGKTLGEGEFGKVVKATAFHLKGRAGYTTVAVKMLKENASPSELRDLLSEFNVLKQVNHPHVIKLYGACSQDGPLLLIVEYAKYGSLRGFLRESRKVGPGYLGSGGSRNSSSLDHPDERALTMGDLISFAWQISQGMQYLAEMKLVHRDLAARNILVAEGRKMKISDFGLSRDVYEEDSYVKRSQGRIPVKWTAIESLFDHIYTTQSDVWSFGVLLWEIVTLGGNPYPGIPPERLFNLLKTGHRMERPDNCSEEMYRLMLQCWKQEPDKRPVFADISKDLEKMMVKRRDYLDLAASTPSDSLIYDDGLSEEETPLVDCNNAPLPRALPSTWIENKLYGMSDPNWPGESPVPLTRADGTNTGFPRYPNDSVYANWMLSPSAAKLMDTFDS

Row | SMILES | KINOMEscan: RET(M918T) (panel of 442 kinases [1]) | KINOMEscan: MKK7 (panel of 442 kinases [2]) | KINOMEscan: EIF2AK1 (panel of 442 kinases [3])
1 | COc1cc(C(=O)N2CCC(N3CCN(C)CC3)CC2)ccc1Nc1ncc2c(n1)N(C)c1ccccc1C(=O)N2C [15 (LRRK2-IN-1)] | 100 | 100 | 100
2 | COc1cc(C(=O)N2CCC(N3CCN(C)CC3)CC2)ccc1Nc1ncc2c(n1)N1CCc3cccc(c31)C(=O)N2C [Compound 24] | 81 |  | 
3 | COc1cc(C(=O)N2CCC(N3CCN(C)CC3)CC2)ccc1Nc1ncc2c(n1)N(C1CCCC1)c1ccccc1C(=O)N2C [Compound 25, 11-cyclopentyl-2-((2-methoxy-4-(4-(4-methylpiperazin-1-yl)piperidine-1-carbonyl)phenyl)amino)-5-methyl-5H-benzo[e]pyrimido[5,4-b][1,4]diazepin-6(11H)-one] | 94 | 100 | 100
4 | CCOc1cc(C(=O)N2CCC(N3CCN(C)CC3)CC2)ccc1Nc1ncc2c(n1)N(C1CCCC1)c1ccccc1C(=O)N2C [Compound 26] | 100 | 88 | 100
